In PMC11345766, “Computational Design of Pore-Forming Peptides with Potent Antimicrobial and Anticancer Activities” (Journal of Medicinal Chemistry, 2024):
Ends that are not written are not given here.

Assays:
[1] = tested on: P. aeruginosa K12 (AMI, IMI, MER, CTZ, PIT); settings: P. aeruginosa / K12 / AMI, IMI, MER, CTZ, PIT / Prot. c; Prot. c
[2] = tested on: E. faecium BM4147 (AMX, VAN); settings: E. faecium / BM4147 / AMX, VAN / Prot. b; Prot. b
[3] = tested on: P. aeruginosa NCTC 13437 (ESBL); settings: P. aeruginosa / NCTC 13437 / ESBL / Prot. a; Prot. a
[4] = tested on: K. pneumoniae ATCC 700603 (ESBL); settings: K. pneumoniae / ATCC 700603 / ESBL / Prot. a; Prot. a
[5] = tested on: E. faecium ATCC 19434T (WT); settings: E. faecium / ATCC 19434T / WT / Prot. b; Prot. b
P. aeruginosa PA01 (WT) = settings: P. aeruginosa / PA01 / WT / Prot. d; Prot. d
[6] = tested on: S. aureus ATCC 29213 (Clinical); settings: S. aureus / ATCC 29213 / Clinical / Prot. c; Prot. c
[7] = tested on: S. aureus ATCC BAA-1556 (MET); settings: S. aureus / ATCC BAA-1556 / MET / Prot. d; Prot. d
[8] = tested on: E. faecium ATCC 700221 (VAN, TEI); settings: E. faecium / ATCC 700221 / VAN, TEI / Prot. d; Prot. d
[9] = tested on: E. faecium Z906 (VAN, TEI, LNZ); settings: E. faecium / Z906 / VAN, TEI, LNZ / Prot. c; Prot. c
P. aeruginosa PA14 (WT) = settings: P. aeruginosa / PA14 / WT / Prot. d; Prot. d
[10] = tested on: K. pneumoniae E1267 (GEN, AMI); settings: K. pneumoniae / E1267 / GEN, AMI / Prot. c; Prot. c
[11] = tested on: E. faecalis ATCC 700802 (VAN); settings: E. faecalis / ATCC 700802 / VAN / Prot. d; Prot. d
[12] = tested on: P. aeruginosa K11 (IMI, MER, CTZ, PIT); settings: P. aeruginosa / K11 / IMI, MER, CTZ, PIT / Prot. c; Prot. c
E. faecalis UCN41 (VAN) = settings: E. faecalis / UCN41 / VAN / Prot. b; Prot. b
E. faecalis JH2-2 (WT) = settings: E. faecalis / JH2-2 / WT / Prot. b; Prot. b
[13] = tested on: S. aureus NRS1 (MRSA or VISA); settings: S. aureus / NRS1 / MRSA or VISA / Prot. a; Prot. a
RPMI 8226 = test: cells; format: cell-based, human; settings: 72 h
Protocol: (§1) The CellTiter-Glo luminescent cell viability assay examining the impact of peptides on 22 different human cell lines was purchased from Reaction Biology Europe GmbH (Germany). Cells were cultured in different media (Table S1), seeded into a flat-bottom 96-well plate, and incubated at 37 °C. After overnight incubation, test compounds were added with 1% PBS/0.3% Tween 20 and the reference compound bortezomib was added with 0.1% DMSO. Negative controls were solvents alone, and positive control was 10 μM staurosporine. After 72 h of incubation at 37 °C, 5 or 10% CO2 (dependent on the medium), and 1 h equilibration at room temperature, well plates were treated with CellTiter-Glo reagent (Promega) for an hour and luminescence was measured using a luminometer.
(§2) Table S1. In vitro activity against 22 different human cancer cell lines.
(§3) Sr. Cancer Activity (in M)
(§4) no. Cell line type Culture medium
(§5) The effect of investigated compounds on the proliferation of 22 different human cell lines is
(§6) Twenty of these 22 cell lines represent specific cancer types and 2 were non-cancerous. Peptide
(§7) Anticancer drug bortezomib was used as the […]

OVCAR-3 = test: cells; format: cell-based, human; settings: 72 h
Protocol: as §1, §2, §3, §4, §5, §6, §7

HCT-15 = test: cells; format: cell-based, human; settings: 72 h
Protocol: as §1, §2, §3, §4, §5, §6, §7

MDA MB 435 = test: cells; format: cell-based, human; settings: 72 h
Protocol: as §1, §2, §3, §4, §5, §6, §7

Row | Substance | MIC [1] | MIC [2] | MIC [3] | MIC [4] | MIC [5] | MIC (P. aeruginosa PA01 (WT)) | MIC [6] | MIC [7] | MIC [8] | MIC [9] | MIC (P. aeruginosa PA14 (WT)) | MIC [10] | MIC [11] | MIC [12] | MIC (E. faecalis UCN41 (VAN)) | MIC (E. faecalis JH2-2 (WT)) | MIC [13] | IC50 (RPMI 8226) | IC50 (OVCAR-3) | IC50 (HCT-15) | also measured
1 | KKKKLKKILKKLFQFINQLDNQLQDIKKKK-NH2 [LP18] | > 32 µM | 4 µM | 11 µM | 4 µM | 15 µM | 3.1 µM | > 32 µM | > 60 µM | > 60 µM | 16 µM | 3.1 µM | > 32 µM | > 60 µM | 16 µM | > 32 µM | > 32 µM | > 16 µM | – | – | – | –
2 | H-HHHHLKKILKKLFQFINQLDNQLQDIHHHH-OH [LP40] | – | – | – | – | – | – | – | – | – | – | – | – | – | – | – | – | – | 5.6 µM | 9 µM | 7.1 µM | IC50 (MDA MB 435): 190 µM
3 | KKKKLKKILKKLFQFINQLDNQLQDIKQNK-NH2 [LP1] | > 32 µM | 16 µM | > 16 µM | 4 µM | > 32 µM | 3.1 µM | > 32 µM | > 60 µM | 12.5 µM | > 32 µM | 3.1 µM | > 32 µM | > 60 µM | > 32 µM | > 32 µM | > 32 µM | > 16 µM | 4.4 µM | 4.9 µM | 4.7 µM | IC50 (MDA MB 435): 1.4 µM
